US8211901B2, “Naphthamide derivatives as multi-target protein kinase inhibitors and histone deacetylase inhibitors” (Shenzhen Chipscreen Biosciences Ltd., priority 2009, dated 2012)

Experiments:
[1] = tested on: Bel-7402; assay: Tumor cell proliferation (MTS), Bel-7402; format: cell-based; details: Homo sapiens, 72 hours, complete medium
Protocol: (§1) Measurement of In Vivo Cell Proliferation:
(§2) Tumor cells were trypsinized and plated into 96-well plates at 3,000 per well and incubated in complete medium with 10% FBS for 24 hours. Compounds were added over a final concentration range of 100 μmol/L to 100 nmol/L in 0.1% DMSO and incubated for 72 hours in complete medium. The effects on proliferation were determined by addition of MTS reagent (Promega) according to the instruction, incubation for 2 hours at 37° C. in CO2 incubator, and record the absorbance at 490 nm using an ELISA plate reader.
(§3) Human Cell Lines are Listed Below:
Bel-7402: Hepatocellular carcinoma

[2] = target: T1, human PDGFRβ (Homo sapiens, UniProt P09619); assay: PDGF dependent cell proliferation (MTS); format: cell-based; details: PDGFRβ NIH-3T3 cells, PDGF BB 50 ng/ml, 72 hours, serum-free medium; read-out: GI50 nM (PDGF ligand-dependent cell proliferation)
T1 construct: expressed in transfected cells
T1 sequence (P09619 33-1106): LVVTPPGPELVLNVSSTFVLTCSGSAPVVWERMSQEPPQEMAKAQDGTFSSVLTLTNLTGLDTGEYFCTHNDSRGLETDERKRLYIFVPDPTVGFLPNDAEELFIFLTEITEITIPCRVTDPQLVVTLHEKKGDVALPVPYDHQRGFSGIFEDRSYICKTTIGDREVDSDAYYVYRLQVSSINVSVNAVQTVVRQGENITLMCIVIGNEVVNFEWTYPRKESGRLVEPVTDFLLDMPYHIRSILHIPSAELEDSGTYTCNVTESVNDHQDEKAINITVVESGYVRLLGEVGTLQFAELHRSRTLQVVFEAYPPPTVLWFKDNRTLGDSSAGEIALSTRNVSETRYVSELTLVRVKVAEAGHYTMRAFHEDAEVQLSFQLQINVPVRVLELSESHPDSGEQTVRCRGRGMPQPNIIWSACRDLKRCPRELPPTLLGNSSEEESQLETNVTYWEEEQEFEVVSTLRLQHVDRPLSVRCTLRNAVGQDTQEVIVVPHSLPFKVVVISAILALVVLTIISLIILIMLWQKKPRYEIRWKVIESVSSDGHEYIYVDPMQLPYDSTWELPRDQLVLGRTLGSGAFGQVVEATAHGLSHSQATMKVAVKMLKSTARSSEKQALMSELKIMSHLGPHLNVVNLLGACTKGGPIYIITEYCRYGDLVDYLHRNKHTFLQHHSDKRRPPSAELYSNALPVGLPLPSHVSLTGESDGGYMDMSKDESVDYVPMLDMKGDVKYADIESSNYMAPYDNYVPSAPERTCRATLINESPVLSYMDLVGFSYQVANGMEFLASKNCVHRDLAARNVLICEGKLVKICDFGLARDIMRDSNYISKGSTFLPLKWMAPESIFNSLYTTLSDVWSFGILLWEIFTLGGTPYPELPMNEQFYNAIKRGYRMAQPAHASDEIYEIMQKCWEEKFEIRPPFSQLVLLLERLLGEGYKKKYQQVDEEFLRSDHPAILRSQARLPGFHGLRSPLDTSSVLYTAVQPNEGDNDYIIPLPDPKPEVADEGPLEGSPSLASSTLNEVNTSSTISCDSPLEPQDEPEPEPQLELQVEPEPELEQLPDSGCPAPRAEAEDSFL
Protocol: PDGF Dependent Cell Proliferation:
NIH-3T3 mouse fibroblasts cell line engineered to stably express human PDGFIRβ was constructed and used to evaluate PDGF dependent cell proliferation. PDGFRβ NIH-3T3 cells were plated into 96-well plates at 5,000 per well and incubated with serum-free medium for 24 hours. Compounds and PDGF BB (50 ng/ml) were added and incubated for 72 hours in serum-free medium. The effects on proliferation were determined by addition of MTS reagent (Promega) according to the instruction, incubation for 2 hours at 37° C. in CO2 incubator, and record the absorbance at 490 nm using an ELISA plate reader.

[3] = tested on: HUVEC cells; assay: VEGF dependent cell proliferation (MTS); format: cell-based; details: Homo sapiens, VEGF 165 50 ng/ml, 72 hours, serum-free medium, read-out: GI50 nM (VEGF ligand-dependent cell proliferation)
Protocol: VEGF Dependent Cell Proliferation:
HUVEC cells were plated into 96-well plates at 6,000 per well and incubated with serum-free medium for 2 hours. Compounds and VEGF 165 (50 ng/ml) were added and incubated for 72 hours in serum-free medium. The effects on proliferation were determined by addition of MTS reagent (Promega) according to the instruction, incubation for 2 hours at 37° C. in CO2 incubator, and record the absorbance at 490 nm using an ELISA plate reader.

[4] = Body weight in HCT-8 xenograft study (Example 54); format: in vivo, nu/nu mice
Protocol: (§4) The antitumor activity of compound 33 and compound 34 were measured in human HCT-8 colon cancer xenograft model. The female nu/nu mice of 18˜20 g were fed by normal diet for 3 days. Then the cultured HCT-8 human colon cancer cells were implanted into the armpit of 50 mice. When tumors had reached approximately 100 mm^3, the mice were divided into 6 groups randomly. Each group has 8 mice. One group was treated with vehicle. One group was treated with sutent, the positive control drug. Two groups were treated with compound 33. The other two groups were treated with compound 34. Each group was dosed orally once a day for 20 days. Tumor volumes as established by caliper measurements were recorded twice per week, along with body weights. At the end of study, the mice were killed, and tumors were weighed. The tumor growth inhibition of each group was calculated using the formula {[(the average tumor weight of vehicle group)−(the average tumor weight of drug group)]/(the average tumor weight of vehicle group)}×100%.

[5] = tested on: A-498; assay: Tumor cell proliferation (MTS), A-498; format: cell-based; details: Homo sapiens, A498; 72 hours, complete medium
Protocol: as §1, §2

[6] = tested on: total HDAC enzyme (HeLa extract); assay: In vitro inhibition of total HDAC enzyme activity (HDAC Fluorimetric Assay/Drug Discovery Kit); format: biochemical
Protocol: Measurement of In Vitro Inhibition of Total HDAC Enzyme Activity:
The in vitro inhibition of total HDAC enzyme was determined by HDAC Fluorimetric Assay/Drug Discovery Kit (BIOMOL) according to manufacture's instruction. • 1. Add Assay buffer, diluted trichostatin A or test inhibitor to appropriate wells of the microtiter plate. Following table lists examples of various assay types and the additions required for each test.
• 2. Add diluted HeLa extract or other HDAC sample to all wells except those that are to be “No Enzyme Controls” (Blank). • 3. Allow diluted Fluor de Lys™ Substrate and the samples in the microtiter plate to equilibrate to assay temperature (25° C.). • 4. Initiate HDAC reactions by adding diluted substrate (25 μl) to each well and mixing thoroughly. • 5. Allow HDAC reactions to proceed for desired length of time and then stop them by addition of Fluor de Lys™ Developer (50 μl). Incubate plate at room temperature (25° C.) for 10-15 min. • 6. Read samples in a microtiter-plate reading fluorimeter capable of excitation at a wavelength in the range 350-380 nm and detection of emitted light in the range 440-460 nm. Measurement of In Vivo Inhibition of HDAC Subtype Activity: […]

[7] = tested on: MCF-7; assay: Tumor cell proliferation (MTS), MCF-7; format: cell-based; details: Homo sapiens, MCF7; 72 hours, complete medium
Protocol: as §1, §2, §3
MCF-7: Mammary gland adenocarcinoma

[8] = tested on: HCT-8; assay: Tumor cell proliferation (MTS), HCT-8; format: cell-based; details: Homo sapiens, 72 hours, complete medium
Protocol: as §1, §2, §3
HCT-8: Ileocecal colorectal adenocarcinoma

[9] = tested on: Class I HDAC; assay: P21 reporter gene assay in HeLa cells; format: cell-based; details: 24 hours
Protocol: HDAC subtype selectivity inhibition assay of tested compounds was carried out by several reporter gene assays experiments. Briefly, HeLa cells were seeded in 96-well plates the day before transfection to give a confluence of 50-80%. Cells were transfected with one of reporter gene plasmid containing a promoter sequence or response element upstream of a luciferase gene construct using FuGene6 transfection reagent according to the manufacturer's instruction (Roche). The promoters or response elements including p21-promoter was fused upstream to the luciferase gene reporter construct. For normalizing the transfection efficiency, a GFP expression plasmid was cotransfected. Cells were allowed to express protein for 24 hours followed by addition of individual compounds or the vehicle (DMSO). 24 hours later the cells were harvested, and the luciferase assay and GFP assay were performed using corresponding assay kits according to the manufacturer's instructions (Promega).

[10] = tested on: A549; assay: Tumor cell proliferation (MTS), A549; format: cell-based; details: Homo sapiens, 72 hours, complete medium
Protocol: as §1, §2, §3
A549: Non small cell lung carcinoma

[11] = tested on: human HCT-8 colon cancer xenograft; assay: Antitumor activity of compounds 33 and 34, HCT-8 xenograft (Example 54); format: in vivo, nu/nu mice
Protocol: as §4

[12] = Body weight in SSMC7721 xenograft study (Example 56); format: in vivo, nu/nu mice
Protocol: The antitumor activity of compound 33 and compound 37 were measured in human SSMC7721 liver cancer xenograft model. The female nu/nu mice of 18˜20 g were fed by normal diet for 3 days. Then the cultured SSMC7721 human liver cancer cells were implanted into the armpit of 50 mice. […] Each group has 8 mice. One group was treated with vehicle. One group was treated with sutent, the positive control drug. Two groups were treated with compound 33. The other two groups were treated with compound 37. Each group was dosed orally once a day for 30 days. Tumor volumes as established by caliper measurements were recorded twice per week, along with body weights. At the end of study, the mice were killed, and tumors were weighed. The tumor growth inhibition of each group was calculated using the formula {[(the average tumor weight of vehicle group)−(the average tumor weight of drug group)]/(the average tumor weight of vehicle group)}×100%.

[13] = Body weight in HCT-8 xenograft study (Example 55); format: in vivo, nu/nu mice
Protocol: The antitumor activity of compound 33 and compound 37 were measured in human HCT-8 colon cancer xenograft model. The female nu/nu mice of 18˜20 g were fed by normal diet for 3 days. Then the cultured HCT-8 human colon cancer cells were implanted into the armpit of 50 mice. […] One group was treated with vehicle. One group was treated with sutent, the positive control drug. Two groups were treated with compound 33. The other two groups were treated with compound 37. Compound 33 was administered twice a day with an interval of 6 hours. Other drugs and vehicle were administered once a day. Each group was dosed orally for 20 days. Tumor volumes as established by caliper measurements were recorded twice per week, along with body weights. At the end of study, the mice were killed, and tumors were weighed. The tumor growth inhibition of each group was calculated using the formula {[(the average tumor weight of vehicle group)−(the average tumor weight of drug group)]/(the average tumor weight of vehicle group)}×100%.

[14] = 30 mg/kg orally once a day for 20 days
[15] = 60 mg/kg orally once a day for 20 days
[16] = 30 mg/kg orally once a day for 30 days
[17] = 60 mg/kg orally once a day for 30 days

Structure (SMILES)	GI50 [1] [µM]	GI50 [2] [nM]	GI50 [3] [nM]	GI50 [5] [µM]	% inhibition of total HDAC enzyme activity at 30 μM [6] [%]	GI50 [7] [µM]	GI50 [8] [µM]	Class I HDAC (P21 reporter assay) Fold Induction at 10 μM [9] [Fold]	GI50 [10] [µM]	further results
COc1ccc2c(Oc3ccc4c(C(=O)NCc5ccc(C(=O)Nc6ccccc6N)cn5)cccc4c3)ccnc2c1 [Example 34]	17.7	248	90	7.9	38.8	5.2	5.5	5.0	11.2	Body weight (g) end [4, 14]: 21.2 ± 1.9 g; Body weight (g) start [4, 14]: 19.7 ± 1.2 g; Body weight (g) end [4, 15]: 21.6 ± 2.3 g; Body weight (g) start [4, 15]: 19.6 ± 1.1 g; TGI (%) Tumor growth inhibition [11, 14]: 3.07%; Tumor weight [11, 14]: 3.95 ± 0.73 g; TGI (%) Tumor growth inhibition [11, 15]: 32.7%; Tumor weight [11, 15]: 2.74 ± 0.77 g
COc1cc2ncnc(Oc3ccc4c(C(=O)Nc5ccc(F)cc5N)cccc4c3)c2cc1OC [Example 17, N-(2-amino-4-fluorophenyl)-6-(6,7-dimethoxyquinazolin-4-yloxy)-1-naphthamide]	30	40	3	≥ 30	22.5	30	3	1.1	30	–
COc1cc2nccc(Oc3ccc4c(C(=O)Nc5ccccc5N)cccc4c3)c2cc1OC [Example 35, N-(2-aminophenyl)-6-(6,7-dimethoxyquinolin-4-yloxy)-1-naphthamide]	19.5	5	1	9.1	19.3	13.3	8.9	1.2	7.7	–
COc1cc2nccc(Oc3ccc4c(C(=O)NCc5ccc(C(=O)Nc6ccccc6N)cc5)cccc4c3)c2cc1OC [Example 37, N-(4-((2-aminophenyl)carbamoyl)benzyl)-6-(6,7-dimethoxyquinolin-4-yloxy)-1-naphthamide]	30	159	4	≥ 30	35.9	30	30	3.0	30	Body weight (g) end [12, 16]: 25.3 ± 0.9 g; Body weight (g) start [12, 16]: 20.7 ± 1.2 g; Body weight (g) end [12, 17]: 24.3 ± 1.1 g; Body weight (g) start [12, 17]: 21.4 ± 0.6 g; Body weight (g) end [13, 14]: 23.6 ± 2.2 g; Body weight (g) start [13, 14]: 20.6 ± 0.8 g; Body weight (g) end [13, 15]: 24.1 ± 2.1 g; Body weight (g) start [13, 15]: 20.8 ± 0.8 g
